Experiments:
Format in all cases: functional
[1] = Induction of c-Fos expression in C57BL/6 mouse assessed as cFos cell count in brain at 0.1 mg/kg for 1 hr by immunohistochemistry (reference value: 470)
[2] = Induction of c-Fos expression in C57BL/6 mouse assessed as cFos cell count in brain at 0.3 mg/kg for 2 hrs by immunohistochemistry (reference value: 470)
[3] = Induction of c-Fos expression in C57BL/6 mouse assessed as cFos cell count in brain at 0.3 mg/kg for 1 hr by immunohistochemistry (reference value: 470)
[4] = Induction of c-Fos expression in C57BL/6 mouse assessed as cFos cell count in brain at 0.3 mg/kg for 4 hrs by immunohistochemistry (reference value: 470)
[5] = Induction of c-Fos expression in C57BL/6 mouse assessed as cFos cell count in brain at 0.03 mg/kg for 1 hr by immunohistochemistry (reference value: 470)
[6] = Induction of c-Fos expression in C57BL/6 mouse assessed as cFos cell count in brain at 3 mg/kg for 1 hr by immunohistochemistry (reference value: 470)
[7] = Induction of c-Fos expression in C57BL/6 mouse assessed as cFos cell count in brain at 0.3 mg/kg for 2 hrs by immunohistochemistry (reference value: 413.7)
[8] = Induction of c-Fos expression in C57BL/6 mouse assessed as cFos cell count in brain at 0.01 mg/kg by immunohistochemistry (reference value: 267)
[9] = Induction of c-Fos expression in C57BL/6 mouse assessed as cFos cell count in brain at 0.1 mg/kg for 1 hr by immunohistochemistry (reference value: 413.7)
[10] = Induction of c-Fos expression in C57BL/6 mouse assessed as cFos cell count in brain at 3 mg/kg for 1 hr by immunohistochemistry (reference value: 413.7)
[11] = Induction of c-Fos expression in C57BL/6 mouse assessed as cFos cell count in brain at 0.3 mg/kg by immunohistochemistry (reference value: 267)
[12] = Induction of c-Fos expression in C57BL/6 mouse assessed as cFos cell count in brain at 0.3 mg/kg for 4 hrs by immunohistochemistry (reference value: 413.7)
[13] = Induction of c-Fos expression in C57BL/6 mouse assessed as cFos cell count in brain at 0.1 mg/kg for 5 days by immunohistochemistry (reference value: 352 to 450); details: time 5 day
[14] = Induction of c-Fos expression in C57BL/6 mouse assessed as cFos cell count in brain at 0.3 mg/kg for 1 hr by immunohistochemistry (reference value: 413.7)
[15] = Induction of c-Fos expression in C57BL/6 mouse assessed as cFos cell count in brain at 0.1 mg/kg for 1 days by immunohistochemistry (reference value: 352); details: time 1 day
[16] = Induction of c-Fos expression in C57BL/6 mouse assessed as cFos cell count in brain at 0.1 mg/kg by immunohistochemistry (reference value: 267)
[17] = Induction of c-Fos expression in C57BL/6 mouse assessed as cFos cell count in brain at 0.03 mg/kg by immunohistochemistry (reference value: 267)
[18] = Induction of c-Fos expression in C57BL/6 mouse assessed as cFos cell count in brain at 1 mg/kg by immunohistochemistry (reference value: 267)
[19] = Induction of c-Fos expression in C57BL/6 mouse assessed as cFos cell count in brain at 0.1 mg/kg for 10 days by immunohistochemistry (reference value: 450); details: time 10 day

COc1cccc2nnn(CC(=O)N[C@@H](C)c3ccc(C)cc3)c(=O)c12
Activity [1]: 2243 | Activity [2]: 2777 | Activity [3]: 2458 | Activity [4]: 865 | Activity [5]: 1628 | Activity [6]: 2023

C[C@H](NC(=O)Cn1nnc2ccccc2c1=O)c1ccc(OC(F)(F)F)cc1 [ZELATRIAZIN]
Activity [7]: 1400 | Activity [8]: 1376 | Activity [9]: 787.7 | Activity [10]: 2365 | Activity [11]: 1408 | Activity [12]: 2170 | Activity [13]: 1928 | Activity [14]: 1343 | Activity [15]: 1486 | Activity [16]: 1381 | Activity [17]: 986.3 | Activity [18]: 1368 | Activity [19]: 1684

Source: ChEMBL document CHEMBL4742386, “4-oxo-3,4-dihydro-1,2,3-benzotriazine derivatives as modulators of gpr139” (2019)
